Laboratory results taken from ChEMBL document CHEMBL4765314, “Rational design and biological evaluation of gemfibrozil modified Xenopus GLP-1 derivatives as long-acting hypoglycemic agents” (Eur J Med Chem, 2020).
Active and inactive are the calls of the source. The rule behind the calls is not given here. Starred links: 1 amine or outer side, 2 acyl side, 3 side chain; linkers in the order of their positions; H or OH if unused. Residues, ends and D or L forms follow the SMILES beside them. Groups on a side chain read outwards from the residue. *: point of attachment. X5 = CC(=O)[C@H](CCCCNC(=O)CC[C@H](NC(=O)CCCCCCCCCCNC(=O)COC(=O)C(C)(C)CCCOc1cc(C)ccc1C)C(=O)O)N*; X4 = CC(=O)[C@H](CCCCNC(=O)CC[C@H](NC(=O)COC(=O)C(C)(C)CCCOc1cc(C)ccc1C)C(=O)O)N*; Glycoloyl(O-gemfibrozoyl) = Cc1ccc(C)c(OCCCC(C)(C)C(=O)OCC(=O)*)c1; γGlu = O=C(O)[C@H](CCC(=O)[*:2])N[*:1]; Aun = NCCCCCCCCCCC(=O)O; Ahx = NCCCCCC(=O)O

How the values were obtained:
[1] = target: Glucagon-like peptide 1 receptor (Homo sapiens, UniProt P43220); test: Agonist activity at human GLP-1R expressed in HEK293 cells assessed as stimulation of cAMP accumulation incubated for 60 mins by HTRF assay; assay type: functional, cell-based
Glucagon-like peptide 1 receptor, sequence (P43220 whole entry): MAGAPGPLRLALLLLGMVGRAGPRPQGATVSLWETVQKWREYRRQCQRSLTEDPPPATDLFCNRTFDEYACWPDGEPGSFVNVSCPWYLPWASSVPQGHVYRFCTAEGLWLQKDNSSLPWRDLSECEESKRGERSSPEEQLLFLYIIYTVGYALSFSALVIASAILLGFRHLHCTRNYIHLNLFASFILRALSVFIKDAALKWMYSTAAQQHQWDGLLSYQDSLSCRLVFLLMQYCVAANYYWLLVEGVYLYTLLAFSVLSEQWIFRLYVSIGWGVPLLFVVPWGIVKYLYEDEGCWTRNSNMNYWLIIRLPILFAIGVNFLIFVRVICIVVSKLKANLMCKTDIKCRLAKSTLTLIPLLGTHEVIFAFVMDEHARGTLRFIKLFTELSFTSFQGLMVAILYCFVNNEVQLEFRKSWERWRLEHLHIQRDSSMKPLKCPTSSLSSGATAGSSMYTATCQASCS

Mus musculus = test: Hypoglycemic activity in 12 hrs fasted ICR mouse assessed as reduction in blood glucose level at 25 nmol/kg, ip dosed 30 mins before glucose challenge measured up to 120 mins by OGTT method; assay type: functional, organism-based; conditions: time 150.0 min
[2] = Stability in Sprague-Dawley rat plasma at 1000 ng/ml measured up to 48 hrs under shaking condition by LC-MS/MS analysis; assay type: ADME, cell-free
[3] = Stability in Sprague-Dawley rat plasma assessed as half life at 1000 ng/ml measured up to 48 hrs under shaking condition by LC-MS/MS analysis; assay type: ADME, cell-free

Structure (SMILES) | EC50 [1] [nM] | Activity (Mus musculus) | Stabilty [2] | half-life at 1000 ng/ml [3] [h]
CC[C@H](C)[C@H](NC(=O)[C@H](CC(C)C)NC(=O)[C@H](Cc1c[nH]c2ccccc12)NC(=O)[C@H](CCC(=O)O)NC(=O)[C@@H](NC(=O)[C@H](Cc1ccccc1)NC(=O)[C@H](CCC(=O)O)NC(=O)[C@H](CCCCNC(=O)CC[C@H](NC(=O)CCCCCCCCCCNC(=O)COC(=O)C(C)(C)CCCOc1cc(C)ccc1C)C(=O)O)NC(=O)[C@H](C)NC(=O)[C@H](C)NC(=O)[C@H](CCC(=O)O)NC(=O)[C@H](CCC(=O)O)NC(=O)[C@H](CCC(=O)O)NC(=O)[C@H](CC(C)C)NC(=O)[C@H](Cc1ccc(O)cc1)NC(=O)[C@H](CCC(=O)O)NC(=O)[C@@H](NC(=O)[C@@H](NC(=O)[C@H](CC(=O)O)NC(=O)[C@H](CC(N)=O)NC(=O)[C@@H](NC(=O)[C@H](Cc1ccc(O)cc1)NC(=O)[C@@H](NC(=O)CNC(=O)[C@H](CCC(=O)O)NC(=O)CNC(=O)[C@@H](N)Cc1cnc[nH]1)[C@@H](C)O)[C@@H](C)O)C(C)C)[C@@H](C)O)[C@@H](C)CC)C(=O)N[C@@H](CCCCN)C(=O)NCC(=O)N[C@@H](CCCCN)C(=O)O (H-HGEGTYTNDVTEYLEEEAAK([γGlu-Aun-Glycoloyl(O-gemfibrozoyl)])EFIEWLIKGK-OH) | 0.093 | Active | Stable | 18.1
CC[C@H](C)[C@H](NC(=O)[C@H](CC(C)C)NC(=O)[C@H](Cc1c[nH]c2ccccc12)NC(=O)[C@H](CCC(=O)O)NC(=O)[C@@H](NC(=O)[C@H](Cc1ccccc1)NC(=O)[C@H](CCC(=O)O)NC(=O)[C@H](CCCCN)NC(=O)[C@H](C)NC(=O)[C@H](C)NC(=O)[C@H](CCC(=O)O)NC(=O)[C@H](CCC(=O)O)NC(=O)[C@H](CCC(=O)O)NC(=O)[C@H](CC(C)C)NC(=O)[C@H](Cc1ccc(O)cc1)NC(=O)[C@H](CCC(=O)O)NC(=O)[C@@H](NC(=O)[C@@H](NC(=O)[C@H](CC(=O)O)NC(=O)[C@H](CC(N)=O)NC(=O)[C@@H](NC(=O)[C@H](Cc1ccc(O)cc1)NC(=O)[C@@H](NC(=O)CNC(=O)[C@H](CCC(=O)O)NC(=O)CNC(=O)[C@@H](N)Cc1cnc[nH]1)[C@@H](C)O)[C@@H](C)O)C(C)C)[C@@H](C)O)[C@@H](C)CC)C(=O)N[C@@H](CCCCNC(=O)CC[C@H](NC(=O)CCCCCNC(=O)COC(=O)C(C)(C)CCCOc1cc(C)ccc1C)C(=O)O)C(=O)NCC(=O)N[C@@H](CCCCN)C(=O)O (H-HGEGTYTNDVTEYLEEEAAKEFIEWLIK([γGlu-Ahx-Glycoloyl(O-gemfibrozoyl)])GK-OH) | 0.21 | Active | Stable | 
CC[C@H](C)[C@H](NC(=O)[C@H](CC(C)C)NC(=O)[C@H](Cc1c[nH]c2ccccc12)NC(=O)[C@H](CCC(=O)O)NC(=O)[C@@H](NC(=O)[C@H](Cc1ccccc1)NC(=O)[C@H](CCC(=O)O)NC(=O)[C@H](CCCCN)NC(=O)[C@H](C)NC(=O)[C@H](C)NC(=O)[C@H](CCC(=O)O)NC(=O)[C@H](CCC(=O)O)NC(=O)[C@H](CCC(=O)O)NC(=O)[C@H](CC(C)C)NC(=O)[C@H](Cc1ccc(O)cc1)NC(=O)[C@H](CCC(=O)O)NC(=O)[C@@H](NC(=O)[C@@H](NC(=O)[C@H](CC(=O)O)NC(=O)[C@H](CC(N)=O)NC(=O)[C@@H](NC(=O)[C@H](Cc1ccc(O)cc1)NC(=O)[C@@H](NC(=O)CNC(=O)[C@H](CCC(=O)O)NC(=O)CNC(=O)[C@@H](N)Cc1cnc[nH]1)[C@@H](C)O)[C@@H](C)O)C(C)C)[C@@H](C)O)[C@@H](C)CC)C(=O)N[C@@H](CCCCNC(=O)CC[C@H](NC(=O)CCCCCCCCCCNC(=O)COC(=O)C(C)(C)CCCOc1cc(C)ccc1C)C(=O)O)C(=O)NCC(=O)N[C@@H](CCCCN)C(=O)O (H-HGEGTYTNDVTEYLEEEAAKEFIEWLIK([γGlu-Aun-Glycoloyl(O-gemfibrozoyl)])GK-OH) | 0.21 | Active | Stable | 
CC[C@H](C)[C@H](NC(=O)[C@H](CC(C)C)NC(=O)[C@H](Cc1c[nH]c2ccccc12)NC(=O)[C@H](CCC(=O)O)NC(=O)[C@@H](NC(=O)[C@H](Cc1ccccc1)NC(=O)[C@H](CCC(=O)O)NC(=O)[C@H](CCCCN)NC(=O)[C@H](C)NC(=O)[C@H](C)NC(=O)[C@H](CCC(=O)O)NC(=O)[C@H](CCC(=O)O)NC(=O)[C@H](CCC(=O)O)NC(=O)[C@H](CC(C)C)NC(=O)[C@H](Cc1ccc(O)cc1)NC(=O)[C@H](CCC(=O)O)NC(=O)[C@@H](NC(=O)[C@@H](NC(=O)[C@H](CC(=O)O)NC(=O)[C@H](CC(N)=O)NC(=O)[C@@H](NC(=O)[C@H](Cc1ccc(O)cc1)NC(=O)[C@@H](NC(=O)CNC(=O)[C@H](CCC(=O)O)NC(=O)CNC(=O)[C@@H](N)Cc1cnc[nH]1)[C@@H](C)O)[C@@H](C)O)C(C)C)[C@@H](C)O)[C@@H](C)CC)C(=O)N[C@@H](CCCCNC(=O)CC[C@H](NC(=O)COC(=O)C(C)(C)CCCOc1cc(C)ccc1C)C(=O)O)C(=O)NCC(=O)N[C@@H](CCCCN)C(=O)O (H-HGEGTYTNDVTEYLEEEAAKEFIEWLIK([γGlu-Glycoloyl(O-gemfibrozoyl)])GK-OH) | 0.21 | Active | Stable | 
CC[C@H](C)[C@H](NC(=O)[C@H](CC(C)C)NC(=O)[C@H](Cc1c[nH]c2ccccc12)NC(=O)[C@H](CCC(=O)O)NC(=O)[C@@H](NC(=O)[C@H](Cc1ccccc1)NC(=O)[C@H](CCC(=O)O)NC(=O)[C@H](CCCCN)NC(=O)[C@H](C)NC(=O)[C@H](C)NC(=O)[C@H](CCC(=O)O)NC(=O)[C@H](CCC(=O)O)NC(=O)[C@H](CCC(=O)O)NC(=O)[C@H](CC(C)C)NC(=O)[C@H](Cc1ccc(O)cc1)NC(=O)[C@H](CCC(=O)O)NC(=O)[C@@H](NC(=O)[C@@H](NC(=O)[C@H](CC(=O)O)NC(=O)[C@H](CC(N)=O)NC(=O)[C@@H](NC(=O)[C@H](Cc1ccc(O)cc1)NC(=O)[C@@H](NC(=O)CNC(=O)[C@H](CCC(=O)O)NC(=O)CNC(=O)[C@@H](N)Cc1cnc[nH]1)[C@@H](C)O)[C@@H](C)O)C(C)C)[C@@H](C)O)[C@@H](C)CC)C(=O)N[C@@H](CCCCN)C(=O)NCC(=O)N[C@@H](CCCCNC(=O)CC[C@H](NC(=O)COC(=O)C(C)(C)CCCOc1cc(C)ccc1C)C(=O)O)C(C)=O (H-HGEGTYTNDVTEYLEEEAAKEFIEWLIKG-X4) | 0.38 | Active | Stable | 
CC[C@H](C)[C@H](NC(=O)[C@H](CC(C)C)NC(=O)[C@H](Cc1c[nH]c2ccccc12)NC(=O)[C@H](CCC(=O)O)NC(=O)[C@@H](NC(=O)[C@H](Cc1ccccc1)NC(=O)[C@H](CCC(=O)O)NC(=O)[C@H](CCCCN)NC(=O)[C@H](C)NC(=O)[C@H](C)NC(=O)[C@H](CCC(=O)O)NC(=O)[C@H](CCC(=O)O)NC(=O)[C@H](CCC(=O)O)NC(=O)[C@H](CC(C)C)NC(=O)[C@H](Cc1ccc(O)cc1)NC(=O)[C@H](CCC(=O)O)NC(=O)[C@@H](NC(=O)[C@@H](NC(=O)[C@H](CC(=O)O)NC(=O)[C@H](CC(N)=O)NC(=O)[C@@H](NC(=O)[C@H](Cc1ccc(O)cc1)NC(=O)[C@@H](NC(=O)CNC(=O)[C@H](CCC(=O)O)NC(=O)CNC(=O)[C@@H](N)Cc1cnc[nH]1)[C@@H](C)O)[C@@H](C)O)C(C)C)[C@@H](C)O)[C@@H](C)CC)C(=O)N[C@@H](CCCCN)C(=O)NCC(=O)N[C@@H](CCCCNC(=O)CC[C@H](NC(=O)CCCCCCCCCCNC(=O)COC(=O)C(C)(C)CCCOc1cc(C)ccc1C)C(=O)O)C(C)=O (H-HGEGTYTNDVTEYLEEEAAKEFIEWLIKG-X5) | 0.38 | Active | Stable | 
CC[C@H](C)[C@H](NC(=O)[C@H](CC(C)C)NC(=O)[C@H](Cc1c[nH]c2ccccc12)NC(=O)[C@H](CCC(=O)O)NC(=O)[C@@H](NC(=O)[C@H](Cc1ccccc1)NC(=O)[C@H](CCC(=O)O)NC(=O)[C@H](CCCCN)NC(=O)[C@H](C)NC(=O)[C@H](C)NC(=O)[C@H](CCC(=O)O)NC(=O)[C@H](CCC(=O)O)NC(=O)[C@H](CCC(=O)O)NC(=O)[C@H](CC(C)C)NC(=O)[C@H](Cc1ccc(O)cc1)NC(=O)[C@H](CCC(=O)O)NC(=O)[C@@H](NC(=O)[C@@H](NC(=O)[C@H](CC(=O)O)NC(=O)[C@H](CC(N)=O)NC(=O)[C@@H](NC(=O)[C@H](Cc1ccc(O)cc1)NC(=O)[C@@H](NC(=O)CNC(=O)[C@H](CCC(=O)O)NC(=O)CNC(=O)[C@@H](N)Cc1cnc[nH]1)[C@@H](C)O)[C@@H](C)O)C(C)C)[C@@H](C)O)[C@@H](C)CC)C(=O)N[C@@H](CCCCN)C(=O)NCC(=O)N[C@@H](CCCCNC(=O)CC[C@H](NC(=O)CCCCCNC(=O)COC(=O)C(C)(C)CCCOc1cc(C)ccc1C)C(=O)O)C(=O)O (H-HGEGTYTNDVTEYLEEEAAKEFIEWLIKGK([γGlu-Ahx-Glycoloyl(O-gemfibrozoyl)])-OH) | 0.38 | Active | Stable | 
CC[C@H](C)[C@H](NC(=O)[C@H](CC(C)C)NC(=O)[C@H](Cc1c[nH]c2ccccc12)NC(=O)[C@H](CCC(=O)O)NC(=O)[C@@H](NC(=O)[C@H](Cc1ccccc1)NC(=O)[C@H](CCC(=O)O)NC(=O)[C@H](CCCCNC(=O)CC[C@H](NC(=O)COC(=O)C(C)(C)CCCOc1cc(C)ccc1C)C(=O)O)NC(=O)[C@H](C)NC(=O)[C@H](C)NC(=O)[C@H](CCC(=O)O)NC(=O)[C@H](CCC(=O)O)NC(=O)[C@H](CCC(=O)O)NC(=O)[C@H](CC(C)C)NC(=O)[C@H](Cc1ccc(O)cc1)NC(=O)[C@@H](NC(=O)[C@@H](NC(=O)[C@@H](NC(=O)[C@H](CC(=O)O)NC(=O)[C@H](CC(N)=O)NC(=O)[C@@H](NC(=O)[C@H](Cc1ccc(O)cc1)NC(=O)[C@@H](NC(=O)CNC(=O)[C@H](CCC(=O)O)NC(=O)CNC(=O)[C@@H](N)Cc1cnc[nH]1)[C@@H](C)O)[C@@H](C)O)C(C)C)[C@@H](C)O)C(C)C)[C@@H](C)CC)C(=O)N[C@@H](CCCCN)C(=O)NCC(=O)N[C@@H](CCCCN)C(=O)O (H-HGEGTYTNDVTVYLEEEAAK([γGlu-Glycoloyl(O-gemfibrozoyl)])EFIEWLIKGK-OH) | 0.093 | Active | Stable | 
